# US6048873A, “Tetrahdroquinolin-2-one 6 or 7-yl, tetrahdroquinilin-2-thione 6 or 7-yl pentadienoic acid and related derivatives having retinoid-like biological activity” (Allergan Sales, Inc., priority 1998, dated 2000)
# How the values were obtained:
# RXRα [1] = molecular target: T1, RXRα (Homo sapiens, UniProt P19793); experiment: RXRα receptor transactivation (Table 1); format: cell-based; settings: RXR α; for Emax: read-out: % Eff
# T1 construct: expressed in transfected cells
# T1 sequence (P19793 1-462): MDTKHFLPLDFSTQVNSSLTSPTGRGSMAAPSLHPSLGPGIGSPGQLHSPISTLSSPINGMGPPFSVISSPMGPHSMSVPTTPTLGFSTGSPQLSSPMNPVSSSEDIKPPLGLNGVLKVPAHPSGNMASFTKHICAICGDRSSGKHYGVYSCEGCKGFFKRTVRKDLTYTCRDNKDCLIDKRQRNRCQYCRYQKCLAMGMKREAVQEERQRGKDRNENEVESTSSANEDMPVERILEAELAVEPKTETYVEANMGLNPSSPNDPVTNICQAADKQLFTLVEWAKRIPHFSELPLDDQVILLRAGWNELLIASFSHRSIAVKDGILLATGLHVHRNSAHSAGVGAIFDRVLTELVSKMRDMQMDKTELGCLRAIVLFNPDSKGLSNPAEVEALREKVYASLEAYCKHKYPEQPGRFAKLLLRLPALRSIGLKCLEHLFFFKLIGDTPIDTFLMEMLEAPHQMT
# Description: (§1) Other assays described below, measure the ability of the compounds of the present invention to bind to, and/or activate various retinoid receptor subtypes. When in these assays a compound binds to a given receptor subtype and activates the transcription of a reporter gene through that subtype, then the compound is considered an agonist of that receptor subtype. […] In the below described assays the ability of the compounds to bind to RARα, RARβ, RARγ, RXRα, RXRβ and RXRγ receptors, and the ability or inability of the compounds to activate transcription of a reporter gene through these receptor subtypes can be tested. […] However, some of the compounds of the invention may behave as retinoid antagonists or partial antagonists and/or as inverse agonists. Because of the complex distribution of the different retinoid receptors in various organs of the mammalian body partial agonists and partial antagonists and compounds which have the characteristics of both may lend themselves to particularly useful therapeutic applications and may avoid serious side effects of conventional retinoid drugs.
# The specification of U.S. Pat. No. 5,455,265 is hereby expressly incorporated by reference.
# (§2) A holoreceptor transactivation assay and a ligand binding assay which measure the antagonist/agonist like activity of the compounds of the invention, or their ability to bind to the several retinoid receptor subtypes, respectively, are described in published PCT Application No. WO WO93/11755 (particularly on pages 30-33 and 37-41) published on Jun. 24, 1993, the specification of which is also incorporated herein by reference. A detailed experimental procedure for holoreceptor transactivations has been described by Heyman et al. Cell 68, 397-406, (1992); Allegretto et al. J. Biol. Chem. 268, 26625-26633, and Mangelsdorf et al. The Retinoids: Biology, Chemistry and Medicine, pp 319-349, Raven Press Ltd., New York, which are expressly incorporated herein by reference. The results obtained in this assay are expressed in EC50 numbers, as they are also in the chimeric receptor transactivation assay. The results of ligand binding assay are expressed in Kd numbers. (See Cheng et al. Biochemical Pharmacology Vol. 22 pp 3099-3108, expressly incorporated herein by reference.)
# RXRβ = molecular target: T2, RXRβ (Mus musculus, UniProt P28704); experiment: RXRβ receptor transactivation (Table 1); format: cell-based; settings: RXR β; for Emax: read-out: % Eff
# T2 construct: expressed in transfected cells
# T2 sequence (P28704 1-520): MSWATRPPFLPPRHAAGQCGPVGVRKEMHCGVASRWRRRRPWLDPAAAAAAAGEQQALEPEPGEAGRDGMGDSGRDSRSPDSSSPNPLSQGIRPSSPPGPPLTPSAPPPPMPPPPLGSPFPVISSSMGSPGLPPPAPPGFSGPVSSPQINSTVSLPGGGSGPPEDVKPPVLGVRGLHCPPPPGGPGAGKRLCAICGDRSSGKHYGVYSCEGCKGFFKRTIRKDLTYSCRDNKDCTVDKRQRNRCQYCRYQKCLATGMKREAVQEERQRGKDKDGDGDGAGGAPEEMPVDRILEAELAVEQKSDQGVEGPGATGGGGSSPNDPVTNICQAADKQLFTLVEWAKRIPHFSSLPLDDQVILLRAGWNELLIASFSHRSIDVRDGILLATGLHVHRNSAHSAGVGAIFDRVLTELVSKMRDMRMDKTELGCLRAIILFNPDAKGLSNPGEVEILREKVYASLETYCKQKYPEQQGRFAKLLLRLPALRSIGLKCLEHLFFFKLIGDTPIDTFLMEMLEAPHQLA
# Description: as §1, §2
# RXRγ [2] = molecular target: T3, RXRγ (Mus musculus, UniProt P28705); experiment: RXRγ receptor transactivation (Table 1); format: cell-based; settings: RXR γ; for Emax: read-out: % Eff
# T3 construct: expressed in transfected cells
# T3 sequence (P28705 1-463): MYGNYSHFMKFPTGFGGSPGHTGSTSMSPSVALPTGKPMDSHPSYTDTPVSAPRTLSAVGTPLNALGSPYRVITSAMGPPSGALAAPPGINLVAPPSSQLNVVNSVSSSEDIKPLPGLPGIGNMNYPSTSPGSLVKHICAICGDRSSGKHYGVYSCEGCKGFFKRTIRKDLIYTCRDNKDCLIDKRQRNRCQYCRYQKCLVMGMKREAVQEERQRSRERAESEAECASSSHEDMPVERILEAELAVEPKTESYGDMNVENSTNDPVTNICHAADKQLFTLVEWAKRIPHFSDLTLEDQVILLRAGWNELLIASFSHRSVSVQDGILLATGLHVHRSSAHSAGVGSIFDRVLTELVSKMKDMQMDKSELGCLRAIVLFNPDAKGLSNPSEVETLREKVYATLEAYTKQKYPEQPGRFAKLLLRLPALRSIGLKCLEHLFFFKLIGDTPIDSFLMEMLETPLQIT
# Description: as §1, §2
# RXRα [3] = molecular target: T1, RXRα; experiment: RXRα ligand binding (Table 1); settings: RXR α
# Description: as §1
# as §2, with “(See Cheng et al. Biochemical Pharmacology Vol. 22 pp 3099-3108, expressly incorporated herein by reference.)” left out
# RXRγ [4] = molecular target: T3, RXRγ; experiment: RXRγ ligand binding (Table 1); settings: RXR γ
# Description: as §1
# as §2, with “(See Cheng et al. Biochemical Pharmacology Vol. 22 pp 3099-3108, expressly incorporated herein by reference.)” left out
# RARα = molecular target: T4, RARα (Homo sapiens, UniProt P10276); experiment: RARα ligand binding (Table 2); settings: RAR α
# T4 sequence (P10276 1-462): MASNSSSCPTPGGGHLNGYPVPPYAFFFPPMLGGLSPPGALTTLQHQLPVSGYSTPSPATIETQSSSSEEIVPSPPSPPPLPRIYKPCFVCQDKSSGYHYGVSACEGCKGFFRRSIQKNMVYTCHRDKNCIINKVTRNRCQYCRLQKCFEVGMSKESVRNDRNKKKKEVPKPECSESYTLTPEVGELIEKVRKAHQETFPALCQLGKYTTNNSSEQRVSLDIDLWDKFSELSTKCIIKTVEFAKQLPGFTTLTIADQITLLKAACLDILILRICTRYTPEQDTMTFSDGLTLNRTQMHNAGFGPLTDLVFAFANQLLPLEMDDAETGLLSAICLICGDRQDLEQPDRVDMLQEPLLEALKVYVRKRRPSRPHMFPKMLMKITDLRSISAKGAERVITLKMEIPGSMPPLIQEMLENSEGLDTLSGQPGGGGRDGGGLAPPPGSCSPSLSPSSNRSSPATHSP
# Description: as §1
# as §2, with “(See Cheng et al. Biochemical Pharmacology Vol. 22 pp 3099-3108, expressly incorporated herein by reference.)” left out
# RARβ = molecular target: T5, RARβ (Homo sapiens, UniProt P10826); experiment: RARβ ligand binding (Table 2); settings: RAR β
# T5 sequence (P10826 1-448 isoform P10826-2): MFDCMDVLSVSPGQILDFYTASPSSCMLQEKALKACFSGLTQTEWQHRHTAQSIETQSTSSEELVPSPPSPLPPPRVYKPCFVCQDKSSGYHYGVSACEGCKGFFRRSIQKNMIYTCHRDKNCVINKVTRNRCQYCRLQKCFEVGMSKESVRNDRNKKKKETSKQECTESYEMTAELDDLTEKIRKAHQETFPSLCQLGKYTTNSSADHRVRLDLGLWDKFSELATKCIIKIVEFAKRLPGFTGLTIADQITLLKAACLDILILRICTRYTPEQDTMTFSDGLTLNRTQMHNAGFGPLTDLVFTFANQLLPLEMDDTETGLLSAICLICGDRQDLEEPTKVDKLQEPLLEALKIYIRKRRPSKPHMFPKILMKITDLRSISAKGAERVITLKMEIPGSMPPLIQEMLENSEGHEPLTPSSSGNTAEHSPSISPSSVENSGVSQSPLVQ
# Description: as §1
# as §2, with “(See Cheng et al. Biochemical Pharmacology Vol. 22 pp 3099-3108, expressly incorporated herein by reference.)” left out
# RARγ = molecular target: T6, RARγ (Homo sapiens, UniProt P13631); experiment: RARγ ligand binding (Table 2); settings: RAR γ
# T6 sequence (P13631 1-454): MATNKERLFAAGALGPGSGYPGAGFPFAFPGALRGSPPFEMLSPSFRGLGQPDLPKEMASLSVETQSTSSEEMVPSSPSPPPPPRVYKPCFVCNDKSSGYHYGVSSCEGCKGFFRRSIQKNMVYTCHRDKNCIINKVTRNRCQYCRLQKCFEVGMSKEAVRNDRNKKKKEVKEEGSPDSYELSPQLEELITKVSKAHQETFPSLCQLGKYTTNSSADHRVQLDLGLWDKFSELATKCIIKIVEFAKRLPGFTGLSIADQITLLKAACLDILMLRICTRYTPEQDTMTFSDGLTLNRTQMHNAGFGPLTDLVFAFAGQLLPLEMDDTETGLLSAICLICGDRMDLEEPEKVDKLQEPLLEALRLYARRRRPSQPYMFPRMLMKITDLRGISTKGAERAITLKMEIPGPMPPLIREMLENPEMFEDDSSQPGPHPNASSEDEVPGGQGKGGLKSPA
# Description: as §1
# as §2, with “(See Cheng et al. Biochemical Pharmacology Vol. 22 pp 3099-3108, expressly incorporated herein by reference.)” left out
EC50 (RXRα [1]),Emax (RXRα [1]),EC50 (RXRβ),Emax (RXRβ),EC50 (RXRγ [2]),Emax (RXRγ [2]),Kd (RXRα [3]),Kd (RXRγ [4]),Kd (RARα),Kd (RARβ),Kd (RARγ),Compound
0.064 nM,160%,0.376 nM,144%,0.059 nM,137%,0.97 nM,10.5 nM,27000 nM,31000 nM,25000 nM,"CC(/C=C/[C@@H]1C[C@]1(C)c1ccc2c(c1)C(C)(C)CC(=S)N2C(C)C)=C\C(=O)O [Compound 2, (6S,7S)-7-(4,4-Dimethyl-1-(2-propyl)-2-thioxo-1,2,3,4-tetrahydroquinolin-6-yl)-6,7-methano-3-methyl-octa-2E,4E-dienoic acid]"
0.077 nM,107%,0.627 nM,109%,0.085 nM,115%,1.4 nM,3.1 nM,> 10000 nM,> 10000 nM,> 10000 nM,"CC(/C=C/[C@@H]1C[C@]1(C)c1ccc2c(c1)C(C)(C)CC(=O)N2C(C)C)=C\C(=O)O [Compound 1, (6S,7S)-7-(4,4-Dimethyl-2-oxo-1-(2-propyl)-1,2,3,4-tetrahydroquinolin-6-yl)-6,7-methano-3-methyl-octa-2E,4E-dienoic acid]"
0.15 nM,110%,0.42 nM,115%,0.31 nM,101%,0.35 nM,4.1 nM,> 30000 nM,10000 nM,12000 nM,CC(/C=C/[C@@H]1C[C@]1(C)c1ccc2c(c1)C(C)(C)CCN2C(=O)OC(C)(C)C)=C\C(=O)O [Compound 17]
